The source of these data is patent publication US20200129525A1, “Method to improve quality of life in non-primate animals by administration of Dehydroepiandrosterone Sulfate (DHEAS) sufficient to achieve primate-specific levels of circulating DHEAS that are not natural to the target species” (priority 2018, published 2020).

The test relates to dogs. The test can be described thus: Study on 60 dogs: owner estimation of playfulness and sociability before and after DHEAS treatment. The format is in vivo, dog. As to conditions: for playfulness and sociability: dogs. As to the method: Table 1. […] Playfulness was defined as a dog initiating solitary play. Sociability was defined as a dog initiating play with another pet or with its owner. […] Of twenty-six dogs treated the highest doses (25 or 50 mg/kg) eighteen owners reported the changes in their dogs to be dramatic.
Physiological levels of circulating DHEAS in canines are 10 ng/ml (±2 ng/ml) (Frank et al, 2003; Odell & Parker, 1985; Tremblay & Belanger, 1985; Mialot et al, 1988; Mongillo et al, 2014; Rondelli et al, 2015). Our invention employs doses of DHEAS that produce supra-physiologic concentrations of circulating DHEAS at least nine times higher than this, i.e., at least 90 ng/ml, i.e. equivalent to the lower range of primate-specific high levels of circulating DHEAS (FIG. 1). This equates to a minimum treatment dose of 0.009 mg/kg. Our studies reported here were performed with DHEAS administered at ranges from 0.5-50 mg/kg. For all non-primate animals, this invention employs supra-physiologic doses of DHEAS that produce concentrations of circulating DHEAS that are at least ten-fold higher than those found naturally
Thus, in 56 of 60 treated dogs, owners reported observing a very clear improvement in their dog's playfulness and sociability, an observation that in most cases was also remarked upon by visitors to the owner's home. The uniformity of this finding is surprising, because the natural levels of canine DHEAS are quite low, and so this species has never been exposed to such high levels as we report here. Clearly, dogs experience an unmistakable positive response to exogenous DHEAS.
We administered our DHEAS orally, as a liquid, or in capsules. A preferred embodiment of this invention are dosage formulations that mask the bitter flavor of DHEAS from dogs or other pet animals receiving it orally. As an example, Onda et al. (U.S. Pat. No. 4,385,078A) teach methods for providing enteric coatings for solid dosage forms. Tai (U.S. Pat. No. 5,013,557A) teaches taste masking compositions comprising spray dried microcapsules containing sucralfate, and Alkire (U.S. Pat. No. 5,607,697A) and Cherukuri et al (U.S. Pat. No. 5,013,716A) teach the manufacture of taste masking microparticles for oral dosage forms. Patell (U.S. Pat. No. 4,916,161A) teaches the use of taste-masking pharmaceutical agents via wet granulation. In short, many methods are available to produce a formulation that will effectively prevent dogs or other pet animals from experiencing the bitter taste of DHEAS. Very little work has been done using DHEAS as the pharmaceutical ingredient, with most studies utilizing DHEA. For example, US20140235598A1 teaches the manufacture of tablets containing DHEA, but a similar formulation could be rendered with DHEAS.

“And” between values parts separate entries of the source, which are not always exact repeats. Equal entries are not always repeated.

Dehydroepiandrosterone sulfate [DHEAS]: the “dogs whose owners reported a clear increase in playfulness and/or sociability during the treatment period” value (60 treated dogs, DHEAS oral (liquid or capsules), 0.5-50 mg/kg, owner estimation) is “fifty-six of sixty and 56 of 60”. For the same substance, the playfulness and sociability result is given as “profound increase” (doses of 5 mg/kg and above); “an effect could be observed” (lower dose of 1 mg/kg). Further, the “owners who reported the changes in their dogs to be dramatic” value (of twenty-six dogs treated with the highest doses (25 or 50 mg/kg)) is “eighteen”.
